The structures appear in SMILES notation. Where a SMILES comes first, the peptide text is derived from it. A value given as a limit tells only on which side of the number the result lay.

The IC50 is the midpoint of a concentration-inhibition curve.

Targets include HLA A*0101 (Homo sapiens, UniProt P04439, A114D/A174V/A182V/D101N/D185E/E176A/E190D/L180R/Q94H/R68K/S129P/T187R/V100A/V91M/W191G); HLA B*4402 (Homo sapiens, UniProt P01889, A223V/A65T/A93T/A95T/D201E/D98Y/E176V/E187L/E204Q/E69K/G107R/H137Y/K202T/L105A/L119I/N104T/N87E/Q56L/Q94N/R106L/R155S/R180D/S101N/S121R/S35A/S48T/T118I/V36M/W191S/Y140D/Y91S); HLA A*0301 (Homo sapiens, UniProt P04439); HLA B*0702 (Homo sapiens, UniProt P01889); HLA A*0201 (Homo sapiens, UniProt P04439, D140Y/D185E/D98H/E176V/E277Q/G131W/G231S/I119V/I121R/I166T/I218V/L300P/L318F/N151K/N90K/P208A/P217A/Q86G/Q94H/R138H/R169H/T345S); HLA A*2402 (Homo sapiens, UniProt P04439, D101N/D140Y/D185E/E176V/E190D/F33S/G103R/G107R/I119L/I121M/I306V/K335N/L105A/L180Q/L300P/N151K/N90K/Q86E/Q94H/R106L/R138H/R89G/T104I/T345S/V100E/W191G/Y123F).

Test in all cases: HLA class I binding assay (cell-free competition, fluorescence polarization)

For `C[C@H](N)C(=O)N[C@@H](CO)C(=O)N[C@@H](Cc1ccccc1)C(=O)N[C@@H](CO)C(=O)N[C@@H](C)C(=O)N[C@@H](CO)C(=O)N[C@H](C(=O)NCC(=O)N[C@@H](Cc1ccc(O)cc1)C(=O)O)[C@@H](C)O` (H-ASFSASTGY-OH), the IC50 at HLA A*0101 is over 1000 µM; at HLA B*4402 it was 31.7 µM; at HLA A*0301 it was 2.37 µM.
For the molecule `CC(C)[C@H](NC(=O)[C@H](CCC(=O)O)NC(=O)[C@H](Cc1ccccc1)NC(=O)[C@@H](NC(=O)[C@H](CC(=O)O)NC(=O)[C@@H](N)CC(=O)O)[C@@H](C)O)C(=O)N[C@@H](Cc1ccc(O)cc1)C(=O)N[C@@H](CO)C(=O)N[C@@H](CCC(=O)O)C(=O)N[C@@H](Cc1ccc(O)cc1)C(=O)O` (H-DDTFEVYSEY-OH; N-terminus assumed), the IC50 at HLA A*0101 and at HLA B*4402 was over 1000 µM throughout.
As for `CC[C@H](C)[C@H](NC(=O)[C@H](CC(N)=O)NC(=O)[C@H](CCCCN)NC(=O)[C@H](CCCCN)NC(=O)[C@H](CCCCN)NC(=O)[C@H](CC(C)C)NC(=O)[C@@H](N)Cc1ccccc1)C(=O)N[C@H](C(=O)N[C@@H](CC(C)C)C(=O)O)[C@@H](C)O` (H-FLKKKNITL-OH), the results for the half-inhibitory concentration (IC50) on HLA B*0702 and on HLA A*0201 were 25.4 µM and 5.34 µM, respectively.
Turning to `CC(C)C[C@H](NC(=O)[C@H](CO)NC(=O)[C@@H]1CCCN1C(=O)[C@H](CCCCN)NC(=O)[C@H](CC(N)=O)NC(=O)[C@H](CC(C)C)NC(=O)[C@H](CC(C)C)NC(=O)[C@H](CCCCN)NC(=O)[C@@H]1CCCN1C(=O)[C@@H](N)Cc1ccccc1)C(=O)O` (H-FPKLLNKPSL-OH), the IC50 at HLA B*0702 was determined as 73.1 µM.
For the molecule `CC(C)C[C@H](NC(=O)[C@H](Cc1ccccc1)NC(=O)[C@@H]1CCCN1C(=O)[C@@H](N)Cc1c[nH]cn1)C(=O)N[C@@H](CCCCN)C(=O)N[C@@H](CO)C(=O)NCC(=O)N[C@@H](Cc1ccccc1)C(=O)N[C@H](C(=O)N[C@@H](Cc1ccccc1)C(=O)O)[C@@H](C)O` (H-HPFLKSGFTF-OH), the figures for the IC50 at HLA B*0702, at HLA B*4402 and on HLA A*2402 were 0.226 µM, over 1000 µM and 10.5 µM, respectively.
On HLA B*0702, `N=C(N)NCCC[C@H](NC(=O)[C@H](Cc1ccc(O)cc1)NC(=O)[C@H](CCCCN)NC(=O)[C@@H]1CCCN1C(=O)[C@@H](N)Cc1c[nH]cn1)C(=O)N[C@@H](CC(N)=O)C(=O)N[C@@H](Cc1ccccc1)C(=O)N[C@@H](CCCCN)C(=O)N[C@@H](Cc1ccccc1)C(=O)O` (H-HPKYRNFKF-OH) registered an IC50 of 0.336 µM.
At HLA B*0702, `CC[C@H](C)[C@H](NC(=O)[C@H](CC(N)=O)NC(=O)[C@@H](NC(=O)[C@@H]1CCCN1C(=O)[C@H](CCSC)NC(=O)[C@@H]1CCCN1C(=O)[C@@H](N)Cc1c[nH]cn1)[C@@H](C)CC)C(=O)N[C@@H](CCCCN)C(=O)N[C@@H](CC(C)C)C(=O)O` (H-HPMPINIKL-OH) had an IC50 of 0.168 µM.
Same read-out and setting: the result for `CC[C@H](C)[C@H](N)C(=O)N1CCC[C@H]1C(=O)N1CCC[C@H]1C(=O)N[C@@H](CCC(N)=O)C(=O)N[C@H](C(=O)N[C@@H](Cc1ccccc1)C(=O)N[C@@H](CC(=O)O)C(=O)N[C@@H](Cc1ccc(O)cc1)C(=O)N1CCC[C@H]1C(=O)N[C@H](C(=O)O)[C@@H](C)CC)C(C)C` (H-IPPQVFDYPI-OH) reads 245 µM.
For `CC[C@H](C)[C@H](NC(=O)[C@H](CO)NC(=O)[C@H](CCCCN)NC(=O)[C@H](CO)NC(=O)[C@H](CC(N)=O)NC(=O)[C@@H](NC(=O)[C@H](CO)NC(=O)[C@H](Cc1ccc(O)cc1)NC(=O)[C@H](CC(C)C)NC(=O)[C@@H](N)CCCCN)[C@@H](C)CC)C(=O)O` (H-KLYSINSKSI-OH), the half-inhibitory concentration (IC50) on HLA B*0702 was determined as 225 µM; at HLA A*0201, 57.7 µM.
As to `N=C(N)NCCC[C@H](NC(=O)[C@H](Cc1c[nH]c2ccccc12)NC(=O)[C@H](Cc1ccccc1)NC(=O)[C@H](CC(N)=O)NC(=O)[C@@H]1CCCN1C(=O)[C@@H](N)CCCCN)C(=O)N[C@@H](Cc1ccccc1)C(=O)N[C@@H](CCC(N)=O)C(=O)N[C@@H](CC(=O)O)C(=O)N[C@@H](Cc1ccc(O)cc1)C(=O)O` (H-KPNFWRFQDY-OH; N-terminus assumed), at HLA B*0702, the IC50 was over 1000 µM.
The same measure, in the same setting: the result for `CC(C)C[C@H](NC(=O)[C@H](CC(=O)O)NC(=O)[C@H](CCCNC(=N)N)NC(=O)[C@H](CCCNC(=N)N)NC(=O)[C@H](CC(=O)O)NC(=O)[C@H](CO)NC(=O)[C@H](CC(N)=O)NC(=O)[C@H](CC(C)C)NC(=O)[C@@H](N)CC(C)C)C(=O)O` (H-LLNSDRRDL-OH) reads 0.2 µM; that for `CC[C@H](C)[C@H](NC(=O)[C@@H]1CCCN1C(=O)[C@@H](N)CC(C)C)C(=O)N[C@@H](CCC(=O)O)C(=O)N1CCC[C@H]1C(=O)N[C@@H](CCCCN)C(=O)N[C@@H](CCCCN)C(=O)N[C@@H](CC(C)C)C(=O)N[C@@H](C)C(=O)O` (H-LPIEPKKLA-OH), 561 µM.
As to `CC(C)C[C@H](NC(=O)[C@H](CCC(N)=O)NC(=O)[C@@H](NC(=O)[C@@H]1CCCN1C(=O)[C@@H](N)CC(N)=O)C(C)C)C(=O)N[C@@H](CCCCN)C(=O)N[C@@H](CO)C(=O)N[C@@H](CCCCN)C(=O)N[C@@H](Cc1ccccc1)C(=O)O` (H-NPVQLKSKF-OH), the 50% inhibitory concentration (IC50) on HLA B*0702 came to 59.6 µM.
As to `CC(C)C[C@H](NC(=O)[C@H](CC(N)=O)NC(=O)[C@H](CC(C)C)NC(=O)[C@@H](N)CCCNC(=N)N)C(=O)N[C@@H](Cc1ccccc1)C(=O)N[C@@H](CS)C(=O)N[C@@H](Cc1ccccc1)C(=O)N[C@@H](CO)C(=O)N[C@@H](Cc1ccccc1)C(=O)O` (H-RLNLFCFSF-OH), the values for the IC50 on HLA B*4402 and at HLA A*2402 were over 1000 µM and 11 µM, respectively.
Take `CC[C@H](C)[C@H](NC(=O)[C@H](CC(N)=O)NC(=O)[C@@H](N)CCCNC(=N)N)C(=O)N[C@H](C(=O)N[C@@H](CO)C(=O)N[C@@H](CCCCN)C(=O)N[C@@H](Cc1c[nH]cn1)C(=O)N[C@H](C(=O)N[C@@H](CO)C(=O)N[C@H](C(=O)O)C(C)C)[C@@H](C)O)[C@@H](C)CC` (H-RNIISKHTSV-OH): on HLA B*0702, the concentration for half-maximal inhibition (IC50) was 505 µM.
Consider `CC[C@H](C)[C@H](NC(=O)[C@@H](N)CO)C(=O)N[C@@H](C)C(=O)N[C@@H](CO)C(=O)N[C@@H](CCCCN)C(=O)N[C@@H](CC(N)=O)C(=O)N[C@@H](CC(C)C)C(=O)N[C@@H](CCSC)C(=O)N[C@@H](Cc1c[nH]c2ccccc12)C(=O)N[C@H](C(=O)O)C(C)C` (H-SIASKNLMWV-OH), for which the IC50 is over 1000 µM on HLA B*0702, 284 µM on HLA A*0201 and over 1000 µM at HLA A*0301.
For the molecule `CSCC[C@H](NC(=O)[C@@H](NC(=O)[C@H](CC(=O)O)NC(=O)[C@H](Cc1c[nH]cn1)NC(=O)[C@@H]1CCCN1C(=O)[C@@H](N)CO)[C@@H](C)O)C(=O)N[C@@H](CCC(N)=O)C(=O)N[C@@H](CCCCN)C(=O)N[C@@H](CC(=O)O)C(=O)N[C@@H](CC(=O)O)C(=O)O` (H-SPHDTMQKDD-OH; N-terminus assumed), the IC50 on HLA B*0702 was over 1000 µM.
Take `CSCC[C@H](NC(=O)[C@H](CCC(=O)O)NC(=O)[C@@H](N)[C@@H](C)O)C(=O)N[C@@H](Cc1ccccc1)C(=O)N[C@@H](CCCCN)C(=O)N[C@@H](CC(C)C)C(=O)N[C@@H](CCCNC(=N)N)C(=O)N[C@@H](CC(C)C)C(=O)N[C@@H](CC(N)=O)C(=O)N[C@@H](CC(C)C)C(=O)O` (H-TEMFKLRLNL-OH): the IC50 at HLA B*0702 was over 1000 µM; on HLA B*4402, 54.8 µM; on HLA A*2402, 58.2 µM.
Take `CC[C@H](C)[C@H](NC(=O)[C@@H](N)[C@@H](C)O)C(=O)N[C@@H](Cc1ccc(O)cc1)C(=O)NCC(=O)N[C@@H](CCCCN)C(=O)NCC(=O)NCC(=O)N[C@@H](Cc1ccccc1)C(=O)N[C@@H](CCC(N)=O)C(=O)N[C@@H](Cc1ccccc1)C(=O)O` (H-TIYGKGGFQF-OH): on HLA B*0702, the half-inhibitory concentration (IC50) was found to be 109 µM.
Still for that read-out and setting: then `CC[C@H](C)[C@H](NC(=O)[C@@H]1CCCN1C(=O)[C@@H](N)Cc1ccc(O)cc1)C(=O)N[C@@H](CCC(=O)O)C(=O)N[C@@H](CCCCN)C(=O)N[C@@H](CC(C)C)C(=O)NCC(=O)N[C@@H](Cc1c[nH]cn1)C(=O)N[C@H](C(=O)O)C(C)C` (H-YPIEKLGHV-OH), with 0.257 µM.
Same read-out and setting: the result for `CC(C)C[C@H](NC(=O)[C@H](C)NC(=O)[C@H](CC(=O)O)NC(=O)[C@H](Cc1ccccc1)NC(=O)[C@@H](NC(=O)[C@H](CC(N)=O)NC(=O)[C@@H]1CCCN1C(=O)[C@@H]1CCCN1C(=O)[C@@H](N)Cc1ccccc1)[C@@H](C)O)C(=O)O` [FPPNTFDAL] (H-FPPNTFDAL-OH) reads 2.72 µM.
The same measure, in the same setting: the result for `CC(C)C[C@H](NC(=O)[C@H](C)NC(=O)[C@H](CO)NC(=O)[C@@H](NC(=O)[C@H](CCCCN)NC(=O)[C@H](CC(=O)O)NC(=O)[C@H](CCCNC(=N)N)NC(=O)[C@H](CS)NC(=O)[C@@H](N)Cc1c[nH]cn1)[C@@H](C)O)C(=O)O` [HCRDKTSAL] (H-HCRDKTSAL-OH) reads 28.6 µM.
